US10111881B2 (priority 2016, dated 2018)
Where two headings read alike, the source gives them in different places.

Experiments:
TDP1 = TDP1 (Homo sapiens, UniProt Q9NUW8); details: PubChem data; cited from earlier work
HeLa cells [1] = type: cell-based, human; details: for Transferrin uptake: 50 μM
EBOV [2] = experiment: microbe, parasite or virus in culture; type: cell-based, Zaire Ebolavirus (Mayinga strain)
[3] = target: T1, acetylcholine receptor M1 (Homo sapiens, UniProt P11229); details: PubChem data; cited from earlier work
T1 sequence (P11229 1-460): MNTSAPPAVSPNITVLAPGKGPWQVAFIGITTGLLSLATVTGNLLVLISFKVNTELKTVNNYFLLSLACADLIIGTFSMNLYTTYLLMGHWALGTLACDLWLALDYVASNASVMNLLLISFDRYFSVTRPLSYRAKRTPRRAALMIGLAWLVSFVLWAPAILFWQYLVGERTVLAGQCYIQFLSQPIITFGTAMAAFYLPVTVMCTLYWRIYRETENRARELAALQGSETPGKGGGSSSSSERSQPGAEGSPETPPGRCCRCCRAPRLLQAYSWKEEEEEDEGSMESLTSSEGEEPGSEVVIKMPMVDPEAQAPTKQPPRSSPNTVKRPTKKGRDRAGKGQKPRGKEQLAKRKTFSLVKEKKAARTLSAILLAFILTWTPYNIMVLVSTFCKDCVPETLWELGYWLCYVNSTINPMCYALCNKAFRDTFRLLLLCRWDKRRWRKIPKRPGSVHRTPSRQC

MARV = experiment: microbe, parasite or virus in culture; type: cell-based, Marburgvirus (Musoke strain)
Cathepsin = Cathepsin cleavage of GP
[4] = test system: Baby hamster kidney fibroblasts (BHK) cells; experiment: Acridine orange assay for acidification blockers; type: cell-based
HeLa cells [5] = type: cell-based, human; details: for Dextran Uptake: 50 μM
EBOV [6] = type: cell-based, Zaire Ebolavirus (Mayinga strain)
LAMP1-positive vesicles = type: cell-based, human
EBOV [7] = experiment: organism not typed; type: cell-based, Zaire Ebolavirus (Mayinga strain)
EEA1-positive vesicles = type: cell-based, human
NPC1 C-loop = target: T2, NPC1 C-loop (Homo sapiens, UniProt O15118); experiment: NPC1 C-loop binding
T2 construct: C-loop
T2 sequence (O15118 372-620 limits assumed): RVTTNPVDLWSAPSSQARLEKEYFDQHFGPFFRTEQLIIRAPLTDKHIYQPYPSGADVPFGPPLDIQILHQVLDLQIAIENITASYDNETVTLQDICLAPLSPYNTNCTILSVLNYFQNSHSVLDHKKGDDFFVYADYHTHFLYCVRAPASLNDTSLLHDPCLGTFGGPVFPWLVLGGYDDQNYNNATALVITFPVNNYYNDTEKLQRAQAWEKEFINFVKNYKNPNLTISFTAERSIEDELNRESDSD

IL-1-Beta = details: PubChem / MLSMR data; cited from earlier work
Janus kinase 2 = details: PubChem data; cited from earlier work
Shiga toxins A and B = details: cited from earlier work
HeLa cells [8] = details: human
MDM4/1 = target: T3, MDM4/1 (Homo sapiens, UniProt O15151); details: MLSMR screening network data; cited from earlier work
T3 sequence (O15151 1-490): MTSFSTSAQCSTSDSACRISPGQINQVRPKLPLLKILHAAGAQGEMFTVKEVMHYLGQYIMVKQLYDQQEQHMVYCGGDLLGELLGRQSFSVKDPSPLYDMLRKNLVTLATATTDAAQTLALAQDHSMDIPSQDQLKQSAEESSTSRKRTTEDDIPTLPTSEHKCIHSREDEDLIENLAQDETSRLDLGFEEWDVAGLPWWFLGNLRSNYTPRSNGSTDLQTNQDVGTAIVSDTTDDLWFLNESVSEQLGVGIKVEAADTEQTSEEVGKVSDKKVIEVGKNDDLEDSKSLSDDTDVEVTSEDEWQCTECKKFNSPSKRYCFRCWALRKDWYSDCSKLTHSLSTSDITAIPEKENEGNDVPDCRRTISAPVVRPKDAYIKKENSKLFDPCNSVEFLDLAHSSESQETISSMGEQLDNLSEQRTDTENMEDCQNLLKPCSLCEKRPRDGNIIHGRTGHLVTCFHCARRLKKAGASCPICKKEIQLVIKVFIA

Synuclein = details: PubChem data; cited from earlier work
MDM2/A = MDM2/A (Homo sapiens, UniProt Q00987); details: MLSMR screening network data; cited from earlier work
Chain of MDM2/A (Q00987 whole entry, species assumed): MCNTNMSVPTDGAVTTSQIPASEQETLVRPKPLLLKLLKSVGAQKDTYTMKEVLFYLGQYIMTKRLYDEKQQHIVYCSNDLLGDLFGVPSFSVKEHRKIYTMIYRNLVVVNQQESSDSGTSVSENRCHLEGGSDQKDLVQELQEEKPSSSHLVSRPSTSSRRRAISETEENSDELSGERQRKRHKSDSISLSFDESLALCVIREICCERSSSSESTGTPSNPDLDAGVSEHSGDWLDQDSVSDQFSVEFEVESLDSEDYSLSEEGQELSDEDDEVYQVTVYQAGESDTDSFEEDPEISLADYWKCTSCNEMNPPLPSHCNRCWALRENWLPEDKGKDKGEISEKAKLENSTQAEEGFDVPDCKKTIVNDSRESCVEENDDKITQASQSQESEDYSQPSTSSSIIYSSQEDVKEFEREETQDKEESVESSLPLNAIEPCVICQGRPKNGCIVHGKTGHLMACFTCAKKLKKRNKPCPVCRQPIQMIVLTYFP

Chain of TDP1 (Q9NUW8 whole entry, species assumed): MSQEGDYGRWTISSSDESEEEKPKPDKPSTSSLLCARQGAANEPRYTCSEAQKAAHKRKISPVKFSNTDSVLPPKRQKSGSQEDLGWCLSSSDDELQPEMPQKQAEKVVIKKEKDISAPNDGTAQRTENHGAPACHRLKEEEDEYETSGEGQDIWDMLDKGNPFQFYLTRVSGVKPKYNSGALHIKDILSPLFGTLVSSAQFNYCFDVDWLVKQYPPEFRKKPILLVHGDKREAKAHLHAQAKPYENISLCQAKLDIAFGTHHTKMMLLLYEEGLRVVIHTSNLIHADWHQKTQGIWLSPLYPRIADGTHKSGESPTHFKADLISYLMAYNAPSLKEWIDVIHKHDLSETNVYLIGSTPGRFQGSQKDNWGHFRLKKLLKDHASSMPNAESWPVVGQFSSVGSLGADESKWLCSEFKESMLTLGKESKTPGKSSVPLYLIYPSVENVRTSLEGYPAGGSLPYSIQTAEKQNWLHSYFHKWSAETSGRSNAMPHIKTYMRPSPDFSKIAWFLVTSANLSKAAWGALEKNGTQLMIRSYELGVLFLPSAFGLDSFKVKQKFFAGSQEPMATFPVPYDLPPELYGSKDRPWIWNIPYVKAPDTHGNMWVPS

CC(C)N1CCN(C(=O)c2ccc(OC3CCN(CCc4ccccc4)CC3)cc2)CC1 [MLS001101371]
antagonist of DNA repair gene TDP1 (TDP1): identified
effect on transferrin uptake (HeLa cells [1]): do not inhibit transferrin uptake
Transferrin uptake (HeLa cells [1]): 0
IC50 (EBOV [2]; read-out: Activity in macrophages IC50): 24.6 µM
antagonist of acetylcholine receptor M1 [3]: identified
Curve class (MARV) (MARV): 1.3
MARV (Curve class) (MARV): 1.3
IC50 (MARV; read-out: IC-50 (MARV)): 13 µM
IC50 (MARV; read-out: MARV HeLa IC50): 13 µM
Cathepsin clevage (Cathepsin): 0
Acidification Block [4]: +
Dextran Uptake (HeLa cells [5]): 0
Surface interaction (EBOV [6]): 0
Uninfected cell number (EBOV [6]): 0
Effect on LAMP1 (LAMP1-positive vesicles): −
reduction of number of VLPs present in LAMP1-positive vesicles (LAMP1-positive vesicles): 41%
Curve Class (EBOV) (EBOV [7]): 1.3
EBOV (curve class) (EBOV [7]): 1.3
IC50 (EBOV [7]; read-out: EBOV HeLa IC50): 12.9 µM
IC50 (EBOV [7]; read-out: IC-50 (EBOV)): 12.9 µM
Effect on EEA1 (EEA1-positive vesicles): 0
VLP colocalization with EEA1 (EEA1-positive vesicles): colocalized with EEA1 positive vesicles normally
NPC1 C-loop binding (NPC1 C-loop): 0

O=[N+]([O-])c1cc(S(=O)(=O)NCCN2CCOCC2)ccc1Sc1nnnn1-c1ccccc1 [MLS000394177, N-(2-morpholin-4-ylethyl)-3-nitro-4-(1-phenyltetrazol-5-yl)sulfanylbenzenesulfonamide]
secretion of IL-1-Beta (IL-1-Beta): inhibit secretion of IL-1-Beta
effect on transferrin uptake (HeLa cells [1]): no effect on transferrin uptake
Transferrin uptake (HeLa cells [1]): 0
IC50 (EBOV [2]; Zaire ebolavirus, Macrophage, read-out: Activity in macrophages IC50 (μM)): 8.6 µM
Curve class (MARV) (MARV): 1.3
MARV (Curve class) (MARV): 1.3
IC50 (MARV; Orthomarburgvirus, HeLa, read-out: IC-50 (MARV)): 12.9 µM
IC50 (MARV; Orthomarburgvirus, HeLa, read-out: MARV HeLa IC50 (μM)): 12.9 µM
Cathepsin clevage (Cathepsin): 0
inhibition of Janus kinase 2 (JNK2) (Janus kinase 2): active
Acidification Block [4]: +
effect on endosomal acidification [4]: affected endosomal acidification
reduction of uptake of fluorescently labeled dextran (HeLa cells [5]): approximately 91%
Dextran Uptake (HeLa cells [5]): −
Surface interaction (EBOV [6]): +
Uninfected cell number (EBOV [6]): 0
enhancement of virus interaction with cells (EBOV [6]): 44%
reduction of number of viral particles inside the cell body (EBOV [6]): 62%
Shiga toxins A and B (Shiga toxins A and B): active
toxic concentration (not toxic up to / toxic at) (HeLa cells [8]): > 100 µM
Curve Class (EBOV) (EBOV [7]): 1.6
EBOV (curve class) (EBOV [7]): 1.6
potency for Ebolavirus inhibition, times better than EIPA (EBOV [7]): 25 times
EC50 (EBOV [7]; HeLa, read-out: EC50 for Ebolavirus inhibition): 1.9 µM
IC50 (EBOV [7]; Zaire ebolavirus, HeLa, read-out: EBOV HeLa IC50 (μM)): 1.9 µM
IC50 (EBOV [7]; Zaire ebolavirus, HeLa, read-out: IC-50 (EBOV)): 1.89 µM
inhibition of MDM4/1 (MDM4/1): identified as inhibitors
Synuclein activity (Synuclein): active
inhibition of MDM2/A (MDM2/A): identified as inhibitors
NPC1 C-loop binding (NPC1 C-loop): 0
